Common to all, as to assay type: cell-based
One series concerns the target T1, PXR (NR1I2) (Homo sapiens, UniProt O75469).
T1 construct: coding for the hinge region, and LBD of the canonical isoform of the respective nuclear receptor; expressed in transfected cells; host or cells: HEK293T
T1 sequence (O75469 146-433 limits assumed): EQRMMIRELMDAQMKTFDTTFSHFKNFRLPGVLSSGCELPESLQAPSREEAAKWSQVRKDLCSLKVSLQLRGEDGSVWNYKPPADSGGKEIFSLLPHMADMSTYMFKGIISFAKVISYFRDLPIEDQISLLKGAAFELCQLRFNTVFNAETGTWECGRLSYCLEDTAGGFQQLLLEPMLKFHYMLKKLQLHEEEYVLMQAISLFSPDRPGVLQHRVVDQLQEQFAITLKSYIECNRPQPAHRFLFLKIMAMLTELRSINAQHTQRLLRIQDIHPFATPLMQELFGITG
Nature of the series: Gal4-PXR hybrid reporter gene assay (off-target profiling). Conditions: compared with T0901317. The source says:
(§1) For the hybrid reporter gene assays, the previously reported Gal4-fusion receptor plasmids pFA-CMV-hRORα-LBD, pFA-CMV-hRORβ-LBD, pFA-CMV-hRORγ-LBD, pFA-CMV-hLXRα-LBD, pFA-CMV-hLXRβ-LBD, pFA-CMV-hFXR-LBD, pFA-CMV-hPXR-LBD, and pFA-CMV-hRXRα-LBD, coding for the hinge region, and LBD of the canonical isoform of the respective nuclear receptor were used. pFR-Luc (Stratagene) was used as the reporter plasmid, and pRL-SV40 (Promega) was used in all assays for the normalization of transfection efficiency and cell growth. pECE-SV40-Gal4-VP16 was a gift from Lea Sistonen (Addgene plasmid #71728). The LXR-responsive reporter ABCA1-pGL3 was used for the full-length reporter gene assay.
The day before transfection, HEK293T cells were seeded in 96-well plates (4 × 10^4 cells/well). Before transfection, the medium was changed to Opti-MEM without any supplements. […] Luminescence was measured with a Spark 10 M luminometer (Tecan Deutschland GmbH). […] EC50/IC50 values and the standard errors thereof were calculated with the mean fold activation values by OriginPro, Version 2025 (OriginLab Corporation, Northampton, MA, USA), fitting a dose–response curve with a variable Hill slope (Levenberg–Marquardt algorithm). […]
On the technique in general: Reporter assays use an easily measured gene product as a stand-in for the process of interest.

The target of another series is T2, RXRα (Homo sapiens, UniProt P19793).
T2 construct: coding for the hinge region, and LBD of the canonical isoform of the respective nuclear receptor; expressed in transfected cells; host or cells: HEK293T
T2 sequence (P19793 227-458 limits assumed): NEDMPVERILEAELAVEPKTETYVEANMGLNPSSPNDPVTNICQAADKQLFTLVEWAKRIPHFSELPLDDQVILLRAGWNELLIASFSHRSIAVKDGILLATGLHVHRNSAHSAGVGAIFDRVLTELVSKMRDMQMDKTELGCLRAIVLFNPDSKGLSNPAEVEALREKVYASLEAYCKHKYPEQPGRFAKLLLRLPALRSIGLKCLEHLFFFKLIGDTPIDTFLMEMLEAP
Nature of the series: Gal4-RXRα hybrid reporter gene assay (control). Conditions: 30 μM; alone and in competition with bexarotene 1 μM.
Source text: as §1
(§2) The day before transfection, HEK293T cells were seeded in 96-well plates (4 × 10^4 cells/well). […] Luminescence was measured with a Spark 10 M luminometer (Tecan Deutschland GmbH). […] EC50/IC50 values and the standard errors thereof were calculated with the mean fold activation values by OriginPro, Version 2025 (OriginLab Corporation, Northampton, MA, USA), fitting a dose–response curve with a variable Hill slope (Levenberg–Marquardt algorithm). […]
(§3) mediated inhibition of the LXR/RXR heterodimer. […] (c) Quantification of LXR expression on mRNA level in HEK293T and HepG2 cell lines using qRT -PCR. Expression levels were calculated according to the 2 -ΔCt method relative to GAPDH. […]

The next series has as its system Gal4-VP16. The series is described as follows: Gal4-VP16 control experiment (ligand-independent transcriptional activator). The note with it: 30 μM; vs 0.1% DMSO.
Source text: as §1, §2, §3

“Also recorded” adds a separate entry of the source.

Regarding `CCN(C(=O)c1ccccc1)c1ccc(C(O)(C(F)(F)F)C(F)(F)F)cc1` [Compound 1, N-Ethyl-N-(4-[1,1,1,3,3,3-hexafluoro-2-hydroxypropan-2-yl]phenyl)benzamide], the PXR activity entry on PXR (NR1I2) was “reduced activity; also recorded: PXR agonism was retained”.

Regarding `CS(=O)(=O)c1cccc(-c2ccc(CN(Cc3cccc(C(F)(F)F)c3Cl)CC(c3ccccc3)c3ccccc3)cc2)c1` [Compound 3, N-(2-Chloro-3-[trifluoromethyl]benzyl)-N-([3′-{methylsulfonyl}-{1,1′-biphenyl}-4-yl]methyl)-2,2-diphenylethan-1-amine], the RXR modulation entry at RXRα was “neither activated RXR nor competed with literature RXR agonist bexarotene”. Besides, the “influence on Gal4-VP16-mediated luciferase reporter expression” value with Gal4-VP16 was “no influence”.

Values taken from publication PMC12621175, “Scaffold Fusion and SAR Transfer with a Chemical Language Model Generates Novel Liver X Receptor Modulators” (Journal of Medicinal Chemistry, 2025).
